From patent US20130122541A1, “MICROORGANISM PRODUCTION OF HIGH-VALUE CHEMICAL PRODUCTS, AND RELATED COMPOSITIONS, METHODS AND SYSTEMS” (The Regents of the University of Colorado, priority 2010, published 2013)
In brackets after ≈: the same amount, converted by molar mass. Read-outs that look alike come from different tables or passages of the source.

System: E. coli
Assay: microbe, parasite or virus in culture
Assay type: cell-based
Conditions: for MIC: Escherichia coli, BW25113, read-out: MIC Assay Result (g/L 3-HP), aerobic; for % Increase Over Control: aerobic
Description: For MIC evaluations, the final results are expressed in chemical agent concentrations determined by analysis of the stock solution by HPLC (i.e., see Subsection IIIb).
The minimum inhibitory concentration (MIC) was determined aerobically in a 96 well-plate format. […] Media supplements were added according to levels reported in the Supplements Table, where specified. Overnight cultures of strains were grown in triplicate in 5 mL LB (with antibiotic where appropriate). A 1% (v/v) inoculum was introduced into a 5 ml culture of M9 minimal media.

With `O=C(O)CCO` [3-HP, 3-hydroxypropionic acid] the MIC (strain BW25113, no modifications (control), M9) was 27.5 g/L (≈ 305 mM), the MIC (strain BX_00002.0: BW25113 wild type, pKK223-mcs1 (control), M9 + Amp (100 μg/mL)) was 20 g/L and the MIC (strain BX_00003.0: BW25113 wild type, pBT-3 (control), M9 + Cm (20 μg/mL)) was 25 g/L. For the same molecule, the MIC (strain BX_00118.0: BW25113 wild type, pJ251 (control), M9 + Kan (20 μg/mL)) was 25 g/L, the MIC (strain BX_00138.0: BW25113 wild type, pSmart-LC-Kan (control), M9 + Kan (20 μg/mL)) was 25 g/L and the MIC (strain BX_00142.0: BW25113 wild type, pSmart-LC-kan, pBT-3 (control), M9 + Kan (20 μg/mL), Cm (20 μg/mL)) was 20 g/L. The MIC (strain BX_00144.0: BW25113 wild type, pSmart-HC-Amp (control), M9 + Amp (100 μg/mL)) was 25 g/L, the MIC (strain BX_00300.0: BW25113 wild type, pSmart-LC-Kan-tyrA-aroF, M9 + Kan 20 μg/mL) was 35 g/L and the MIC (strain BX_00302.0: BW25113 wild type, pSmart-LC-Kan-folA-ORF, M9 + Kan 20 μg/mL) was 30 g/L. It also gave an MIC (strain BX_00305.0: BW25113 wild type, pSmart-LC-Kan-pheA-C1, M9 + Kan 20 μg/mL) of 35 g/L, an MIC (strain BX_00307.0: BW25113 wild type, pSmart-LC-Kan-tyrA-C1, M9 + Kan 20 μg/mL) of 35 g/L and an MIC (strain BX_00309.0: BW25113 wild type, pSmart-LC-Kan-cynTS, M9 + Kan 20 μg/mL) of 35 g/L. For the same molecule, the MIC (strain BX_00310.0: BW25113 wild type, pSmart-LC-Kan-glyA, M9 + Kan 20 μg/mL) was 35 g/L, the MIC (strain BX_00312.0: BW25113 wild type, pSmart-LC-Kan-serA, M9 + Kan 20 μg/mL) was 35 g/L and the MIC (strain BX_00313.0: BW25113 wild type, pSmart-LC-Kan-folD, M9 + Kan 20 μg/mL) was 30 g/L. For the same molecule, the MIC (strain BX_00314.0: BW25113 wild type, pSmart-LC-Kan-aroE, M9 + Kan 20 μg/mL) was 35 g/L, the MIC (strain BX_00315.0: BW25113 wild type, pSmart-LC-Kan-aroKB C1, M9 + Kan 20 μg/mL) was 35 g/L and the MIC (strain BX_00317.0: BW25113 wild type, pSmart-LC-Kan-ilvA operon, M9 + Kan 20 μg/mL) was 35 g/L. The MIC (strain BX_00318.0: BW25113 wild type, pSmart-LC-Kan-cysM, M9 + Kan 20 μg/mL) was 35 g/L, the MIC (strain BX_00319.0: BW25113 wild type, pK223-aroH, M9 + Amp 100 μg/mL + 1 mM IPTG) was 30 g/L and the MIC (strain BX_00322.0: BW25113 wild type, pJ61-speFED, M9 + Kan 20 μg/mL) was 35 g/L. For the same molecule, the MIC (strain BX_00323.0: BW25113 wild type, pJ61-aroG, M9 + Kan 20 μg/mL) was 35 g/L, the MIC (strain BX_00324.0: BW25113 wild type, pJ61-thrA, M9 + Kan 20 μg/mL) was 35 g/L and the MIC (strain BX_00325.0: BW25113 wild type, pJ61-asd, M9 + Kan 20 μg/mL) was 35 g/L. For the same molecule, the MIC (strain BX_00326.0: BW25113 wild type, pJ61-ilvA, M9 + Kan 20 μg/mL) was 35 g/L, the MIC (strain BX_00327.0: BW25113 wild type, pJ61-cysM, M9 + Kan 20 μg/mL) was 35 g/L and the MIC (strain BX_00335.0: BW25113 wild type, pSmart-HC-Amp-prs, M9 + Amp 100 μg/mL) was 35 g/L. For the same molecule, the MIC (strain BX_00336.0: BW25113 wild type, pSmart-HC-Amp-nrdAB, M9 + Amp 100 μg/mL) was 35 g/L, the MIC (strain BX_00337.0: BW25113 wild type, pSmart-HC-Amp-nrdEF, M9 + Amp 100 μg/mL) was 35 g/L and the MIC (strain BX_00352.0: BW25113 wild type, pSmart-LC-Kan-metC C1, M9 + Amp 100 μg/mL) was 35 g/L. It also gave an MIC (strain BX_00353.0: BW25113 wild type, pSmart-HC-Amp-metC, M9 + Amp 100 μg/mL) of 45 g/L, an MIC (strain BX_00354.0: BW25113 wild type, pSmart-HC-Amp-cynTS, M9 + Amp 100 μg/mL) of 45 g/L and an MIC (strain BX_00356.0: BW25113 wild type, pSmart-HC-Amp-LysA, M9 + Amp 100 μg/mL) of 30 g/L. For the same molecule, the MIC (strain BX_00357.0: BW25113 wild type, pKK223-aroH*445, M9 + Amp 100 μg/mL + 1 mM IPTG) was 30 g/L, the MIC (strain BX_00359.0: BW25113 wild type, pKK223-aroH*457, M9 + Amp 100 μg/mL + 1 mM IPTG) was 35 g/L and the MIC (strain BX_00361.0: BW25113 wild type, pACYC177 (Kan only)-cynTS, M9 + Kan 20 μg/mL) was 35 g/L. For the same molecule, the MIC (strain BX_00362.0: BW25113 wild type, pACYC177 (Kan only)-aroH, M9 + Kan 20 μg/mL + 1 mM IPTG) was 30 g/L, the MIC (strain BX_00363.0: BW25113 wild type, pACYC177 (kan only)-speB, M9 + Kan 20 μg/mL) was 35 g/L and the MIC (strain BX_00364.0: BW25113 wild type, pACYC177 (Kan only)-metE (Version1) (SS090608_13), M9 + Kan 20 μg/mL + 1 mM IPTG) was 35 g/L. For the same molecule, the MIC (strain BX_00365.0: BW25113 wild type, pACYC177 (Kan only)-metC (Version1) (SS090608_17), M9 + Kan 20 μg/mL) was 35 g/L, the MIC (strain BX_00368.0: BW25113 wild type, pBT-3-cynTS, M9 + Cm (20 μg/mL)) was 30 g/L and the MIC (strain BX_00370.0: BW25113 wild type, pBT-3-speB, M9 + Cm (20 μg/mL)) was 30 g/L. The “% Increase Over Control” value (strain BX_00301.0 (pSmart-LC-Kan-folA-C1)) was 40%, the “% Increase Over Control” value (strain BX_00302.0 (pSmart-LC-Kan-folA-ORF)) was 20% and the “% Increase Over Control” value (strain BX_00304.0 (pSmart-LC-Kan-menA-ORF)) was 40%.
